From ChEMBL document CHEMBL5143732 (J Med Chem, 2022) come the findings set out here.

≈ marks a conversion by molar mass, not a printed value.

The subject of one data set is Candida albicans. The data set can be described thus: Antifungal activity against Candida albicans assessed as inhibition of fungal growth measured after 48 hrs by CLSI based agar dilution method. The class given is functional. Background: In agar dilution, organisms are placed on agar that contains the substance at set levels.
Data set [1] has as its system Pichia kudriavzevii. The experiment in a line: Antifungal activity against Candida krusei assessed as inhibition of fungal growth measured after 48 hrs by CLSI based agar dilution method. The class given is functional.
The next data set relates to Candida parapsilosis. The experiment in a line: Antifungal activity against Candida parapsilosis assessed as inhibition of fungal growth measured after 48 hrs by CLSI based agar dilution method. The class given is functional. The settings on record: Lodderomyces parapsilosis.
Another data set relates to Candida tropicalis. The data set can be described thus: Antifungal activity against Candida tropicalis assessed as inhibition of fungal growth measured after 48 hrs by CLSI based agar dilution method. The class given is functional.
Data set [2] has as its system Pichia kudriavzevii. The data set can be described thus: Antifungal activity against Candida krusei ATCC 6258 assessed as inhibition of fungal growth measured after 48 hrs by CLSI based agar dilution method. The format is functional.
The next data set has as its system Cryptococcus neoformans. The experiment in a line: Antifungal activity against Cryptococcus neoformans ATCC 32609 assessed as inhibition of fungal growth measured after 48 hrs by CLSI based agar dilution method. The class given is functional.
Data set [3] is described as follows: Hemolytic activity in human RBC measured after 1 hr. The format is toxicity, cell-based, Erythrocyte. The settings on record: red blood cells (erythrocytes).

A word on the MIC: it is the least concentration at which growth counts as inhibited. Usually HC50 stands for the concentration that lyses half of the red blood cells. A higher HC50 goes with weaker haemolysis. In the case of `CC(=O)NNC(=O)[C@H]1[C@@H]2C[C@@H](O[C@@H]3O[C@H](C)[C@@H](O)[C@H](NC(=O)CN)[C@@H]3O)/C=C/C=C/C=C/C=C/C=C/C=C/C=C/[C@H](C)[C@@H](O)[C@@H](C)[C@H](C)OC(=O)C[C@H](O)C[C@H](O)CC[C@@H](O)[C@H](O)C[C@H](O)C[C@](O)(C[C@@H]1O)O2`, the MIC in the data set with Candida albicans is 0.06 µg/mL (≈ 0.0578 µM); in the data set on Pichia kudriavzevii [1] it was 0.125 µg/mL (≈ 0.121 µM); with Candida parapsilosis it was 2 µg/mL (≈ 1.93 µM); in the data set with Candida tropicalis, 2 µg/mL (≈ 1.93 µM); with Pichia kudriavzevii [2] it was 1 µg/mL (≈ 0.964 µM); in the data set on Cryptococcus neoformans it was 0.125 µg/mL (≈ 0.121 µM). For the same compound, the HC50 at 1 h in data set [3] is 6 µM.

For `COC(=O)NNC(=O)[C@H]1[C@@H]2C[C@@H](O[C@@H]3O[C@H](C)[C@@H](O)[C@H](NC(=O)CN)[C@@H]3O)/C=C/C=C/C=C/C=C/C=C/C=C/C=C/[C@H](C)[C@@H](O)[C@@H](C)[C@H](C)OC(=O)C[C@H](O)C[C@H](O)CC[C@@H](O)[C@H](O)C[C@H](O)C[C@](O)(C[C@@H]1O)O2`, the MIC was found to be 0.06 µg/mL (≈ 0.057 µM) in the data set on Candida albicans; 0.125 µg/mL (≈ 0.119 µM) in the data set on Pichia kudriavzevii [1]; 2 µg/mL (≈ 1.9 µM) in the data set with Candida parapsilosis; 0.25 µg/mL (≈ 0.237 µM) in the data set with Candida tropicalis; 0.5 µg/mL (≈ 0.475 µM) with Pichia kudriavzevii [2]; 1.12 µg/mL (≈ 1.07 µM) in the data set on Cryptococcus neoformans. Also, the HC50 at 1 h in data set [3] was found to be 8.84 µM.

As to `CNCC(=O)N[C@@H]1[C@H](O)[C@H](O[C@H]2/C=C/C=C/C=C/C=C/C=C/C=C/C=C/[C@H](C)[C@@H](O)[C@@H](C)[C@H](C)OC(=O)C[C@H](O)C[C@H](O)CC[C@@H](O)[C@H](O)C[C@H](O)C[C@]3(O)C[C@H](O)[C@@H](C(=O)N4CCC(O)CC4)[C@H](C2)O3)O[C@H](C)[C@H]1O`, the MIC is 0.5 µg/mL (≈ 0.464 µM) in the data set on Candida albicans; 2 µg/mL (≈ 1.85 µM) in the data set with Pichia kudriavzevii [1]; 2 µg/mL (≈ 1.85 µM) in the data set with Candida parapsilosis; 2 µg/mL (≈ 1.85 µM) in the data set with Candida tropicalis; 4 µg/mL (≈ 3.71 µM) in the data set with Pichia kudriavzevii [2]; 0.25 µg/mL (≈ 0.232 µM) with Cryptococcus neoformans. Besides, the HC50 at 1 h in data set [3] came out at 6.3 µM.

With `CNCC(=O)N[C@@H]1[C@H](O)[C@H](O[C@H]2/C=C/C=C/C=C/C=C/C=C/C=C/C=C/[C@H](C)[C@@H](O)[C@@H](C)[C@H](C)OC(=O)C[C@H](O)C[C@H](O)CC[C@@H](O)[C@H](O)C[C@H](O)C[C@]3(O)C[C@H](O)[C@@H](C(=O)NCCO)[C@H](C2)O3)O[C@H](C)[C@H]1O`, the MIC in the data set on Candida albicans came out at 1 µg/mL (≈ 0.963 µM); in the data set with Pichia kudriavzevii [1], 1 µg/mL (≈ 0.963 µM); in the data set on Candida parapsilosis, 2 µg/mL (≈ 1.93 µM); with Candida tropicalis, 2 µg/mL (≈ 1.93 µM); with Pichia kudriavzevii [2], 0.125 µg/mL (≈ 0.12 µM); with Cryptococcus neoformans, 0.5 µg/mL (≈ 0.482 µM). For the same compound, the HC50 at 1 h in data set [3] is 1.79 µM.

With `CNCC(=O)N[C@@H]1[C@H](O)[C@H](O[C@H]2/C=C/C=C/C=C/C=C/C=C/C=C/C=C/[C@H](C)[C@@H](O)[C@@H](C)[C@H](C)OC(=O)C[C@H](O)C[C@H](O)CC[C@@H](O)[C@H](O)C[C@H](O)C[C@]3(O)C[C@H](O)[C@@H](C(=O)N(C)CCO)[C@H](C2)O3)O[C@H](C)[C@H]1O`, the MIC stood at 0.5 µg/mL (≈ 0.475 µM) with Candida albicans; 1 µg/mL (≈ 0.95 µM) with Pichia kudriavzevii [1]; 1 µg/mL (≈ 0.95 µM) with Candida parapsilosis; 1 µg/mL (≈ 0.95 µM) in the data set with Candida tropicalis; 2 µg/mL (≈ 1.9 µM) with Pichia kudriavzevii [2]; 0.5 µg/mL (≈ 0.475 µM) in the data set with Cryptococcus neoformans. In addition, the HC50 at 1 h in data set [3] is 14.8 µM.

As for `CCOC(=O)NNC(=O)[C@H]1[C@@H]2C[C@@H](O[C@@H]3O[C@H](C)[C@@H](O)[C@H](N)[C@@H]3O)/C=C/C=C/C=C/C=C/C=C/C=C/C=C/[C@H](C)[C@@H](O)[C@@H](C)[C@H](C)OC(=O)C[C@H](O)C[C@H](O)CC[C@@H](O)[C@H](O)C[C@H](O)C[C@](O)(C[C@@H]1O)O2`, the MIC in the data set with Candida albicans was 0.25 µg/mL (≈ 0.247 µM); with Pichia kudriavzevii [1], 0.25 µg/mL (≈ 0.247 µM); in the data set on Candida parapsilosis it was 2 µg/mL (≈ 1.98 µM); in the data set with Candida tropicalis, 2 µg/mL (≈ 1.98 µM); with Pichia kudriavzevii [2], 0.5 µg/mL (≈ 0.495 µM); with Cryptococcus neoformans, 0.06 µg/mL (≈ 0.0594 µM). This compound also yielded an HC50 at 1 h in data set [3] of 6.29 µM.

For `CNCC(=O)N[C@@H]1[C@H](O)[C@H](O[C@H]2/C=C/C=C/C=C/C=C/C=C/C=C/C=C/[C@H](C)[C@@H](O)[C@@H](C)[C@H](C)OC(=O)C[C@H](O)C[C@H](O)CC[C@@H](O)[C@H](O)C[C@H](O)C[C@]3(O)C[C@H](O)[C@@H](C(=O)N4CCN(CCO)CC4)[C@H](C2)O3)O[C@H](C)[C@H]1O`, the MIC in the data set on Candida albicans is 0.125 µg/mL (≈ 0.113 µM); in the data set with Pichia kudriavzevii [1], 0.25 µg/mL (≈ 0.226 µM); with Candida parapsilosis, 0.5 µg/mL (≈ 0.452 µM); in the data set with Candida tropicalis, 0.5 µg/mL (≈ 0.452 µM); in the data set on Pichia kudriavzevii [2], 2 µg/mL (≈ 1.81 µM); in the data set on Cryptococcus neoformans it was 0.03 µg/mL (≈ 0.0271 µM). Also, the HC50 at 1 h in data set [3] is 15.1 µM.
